Data from US20050124497A1, “Delta1-pyrrolines and their use as pest control agents” (priority 2002, published 2005).

Tested on: caterpillars of the diamondback moth (Plutella xylostella)
Experiment: Plutella test
Format: in vivo
Details: 100 ppm active compound, cabbage leaves dipped, kill after 7 d
Procedure: To produce a suitable preparation of active compound, 1 part by weight of active compound is mixed with the stated amounts of solvent and emulsifier, and the concentrate is diluted with emulsifier-containing water to the desired concentration.
Cabbage leaves (Brassica oleracea) are treated by being dipped into the preparation of active compound of the desired concentration and are populated with caterpillars of the diamondback moth (Plutella xylostella) while the leaves are still moist.
After the desired period of time, the kill in % is determined. 100% means that all caterpillars have been killed; 0% means that none of the caterpillars have been killed.

## Fc1cc(-c2nc3cc(-c4ccccc4)ccc3o2)ccc1C1CCC(c2c(F)cccc2F)=N1 (stereo not shown) [drawing 46]
  Efficacy in % after 7 d: 100%
